Measured values as given in patent US20210196779A1, “Compositions and Methods for Treating Steroid Hormone-Related Diseases or Disorders” (YALE UNIVERSITY, priority 2018, published 2021).
Where two headings read alike, the source gives them in different places.

What was measured:
Type in all cases: cell-based
[1] = tested on: estrogen receptor ERb; experiment: Western blot, MCF7 cells, ERb; conditions: presence or absence of E2, 24 h
Method: (§1) Western blot analysis was used to determine the protein expression using protein specific antibodies.
(§2) Total cell lysis was conducted using 2×SDS sample buffer (62.5 mM Tris-HCl, 2% SDS, 10% glycerol, 50 mM DTT, and 0.05% bromophenol blue). The samples were sonicated for 10 s to shear DNA. Cell nuclei were isolated using Tris buffer saline with 0.4% NP40. Cell extracts were then electrophoresed through 10% SDS-polyacrylamide gels and transferred to 0.2 μm nitrocellulose membranes (Bio-Rad Laboratories, Hercules, Calif.) with a Miniprotein II transferring apparatus (Bio-Rad). The membranes were blocked and probed in TBS-T buffer (1×TBS buffer, 0.2% Tween 20) containing 5% non-fat milk. Monoclonal rabbit anti-AR (1:5000), was used to detect androgen receptor (Abcam #133273), Glucocorticoid Receptor (D8H2) XP® Rabbit mAb #3660, ERa Antibody (F-10): sc-8002, BRD4 (E2A7X) Rabbit mAb #13440, Brd2 (D89B4) Rabbit mAb #5848, PARP (46D11) Rabbit mAb #9532, Acetyl-Histone H3 (Lys27) (D5E4) XP® Rabbit mAb #8173 and a monoclonal actin antibody diluted 1:2500 (Sigma, St. Louis, Mo.) was used to detect β-actin as the internal control to confirm equal protein loading. […] Enhanced chemiluminescence reagents (Perkin-Elmer Life Science Products, Boston, Mass.) were used to visualize the immunoreactive bands and the densities of protein bands were scanned analyzed using ImageJ software from the NIH.

[2] = tested on: beta-catenin (b-cat); experiment: Western blot, 22RV1 cells, beta-catenin; conditions: presence or absence of DHT, 24 h
Method: as §1, §2

[3] = tested on: androgen receptor (AR); experiment: PSA-luciferase reporter assay, DHT induced, 22RV1 cells; conditions: equivalent doses, 22RV1 cells in the presence of DHT
Method: 22RV1 or LNCaP prostate cancer cells were used in the screening study. 22RV1 or LNCaP cell lines were stably transfected with PSA promoter-PGL4.2 luciferase reporter. DHT (25 nM) was used to stimulate androgen receptor activity for 24 h.
Reporter cells were treated with herbal extracts at 30, 100, 300, and 1000 μg/ml for 24 h in a 37° C.-CO2 incubator. DHT (25 nM) was used to stimulate androgen receptor activity. Dexamethasone (50 nM) was used to stimulate glucocorticoid receptor activity Cells were lysed using luciferase lysis buffer after which luciferase buffer with luciferin was added to generate luminescence. Luminescence was recorded using a luminescence microplate reader.

[4] = tested on: LNCaP cells; experiment: Cell growth assay, LNCaP prostate cancer cells; conditions: for IC50: Homo sapiens, LNCaP, 96 h, 4 days, standardized to equivalent concentration of Y1830, read-out: IC50 for the inhibition of growth
Method: (§3) 22RV1 or LNCaP prostate cancer cells were grown in corning T75 cell culture flasks in RPMI1640 medium supplemented with 5% FBS, 50 μg/ml Kanamycin in a 37° C., 5% CO2 incubator.
(§4) 20,000 cells in 1 ml of medium (phenol red free RPMI1640, 5% charcoal-dialysis FBS, 50 μg/ml Kanamyacin) were seeded per well of a 24-well plate and incubated in a 37° C. incubator with 5% CO2 overnight. Different concentrations of herbal extract were added to each well in order to have final concentrations from 50 μg/ml to 500 μg/ml. […] For glucocorticoid receptor overexpressed LNCaP cells, dexamethasone (50 nM) was used to stimulate glucocorticoid receptor activity. For all breast cancer cells, E2 (10 nM) was used to stimulate ER activity. Control medium without any steroid hormone was used as a control setting. After 4 days of incubation, cells were fixed and stained for 2 h with 0.5% methylene blue in 50% ethanol, followed by washing with tap water to remove unbound dye. Plates were air dried and then cells were dissolved in 1% sarkosyl (sodium lauroyl sarcosinate) by shaking at room temperature for 3 h. […] All experiments were performed in triplicate wells and were repeated at least three times.

[5] = tested on: PC3 cells; experiment: Cell growth assay, PC3 cells; conditions: for IC50: Homo sapiens, PC-3, 96 h, 4 days, standardized to equivalent concentration of Y1830, read-out: IC50 for the inhibition of growth
Method: as §4

[6] = tested on: LNCaP-GR (GR overexpressing) cells; experiment: Cell growth assay, GR overexpressing LNCaP cells; conditions: for IC50: Homo sapiens, LNCaP, 96 h, 4 days, standardized to equivalent concentration of Y1830, read-out: IC50 for the inhibition of growth
Method: as §4

[7] = tested on: cyclin D1 (cycD1); experiment: Western blot, 22RV1 cells, cyclin D1; conditions: presence or absence of DHT, 24 h
Method: as §1, §2

[8] = molecular target: T1, estrogen receptor ERa (Homo sapiens, UniProt P03372); experiment: Western blot, MCF7 cells, ERa; conditions: presence or absence of E2, 24 h
T1 construct: endogenous in cells; host or cells: MCF7
Method: as §1, §2

[9] = tested on: beta-catenin (b-cat); experiment: Western blot, MCF7 cells, beta-catenin; conditions: presence or absence of E2, 24 h
Method: as §1, §2

[10] = tested on: GR; experiment: Western blot, 22RV1 cells, GR; conditions: presence or absence of DHT, 24 h
Method: as §1, §2

[11] = tested on: 22Rv1 cells; experiment: Cell growth assay, 22Rv1 prostate cancer cells; conditions: Homo sapiens, 22Rv1, 96 h, 4 days, standardized to equivalent concentration of Y1830, read-out: IC50 for the inhibition of growth
Method: as §3, §4

[12] = tested on: AR; experiment: Western blot, 22RV1 cells, AR; conditions: presence or absence of DHT, 24 h
Method: as §1, §2

[13] = tested on: AR-V (truncated AR); experiment: Western blot, 22RV1 cells, AR-V; conditions: presence or absence of DHT, 24 h
Method: as §1, §2

[14] = tested on: progesterone receptor PR (a and b); experiment: Western blot, MCF7 cells, PR; conditions: presence or absence of E2, 24 h
Method: as §1, §2

[15] = tested on: GR; experiment: Western blot, MCF7 cells, GR; conditions: 24 h
Method: as §1, §2

[16] = molecular target: T2, AR (Homo sapiens, UniProt P10275); experiment: Western blot, MCF7 cells, AR; conditions: presence or absence of E2, 24 h
T2 construct: endogenous in cells; host or cells: MCF7
Method: as §1, §2

[17] = tested on: cyclin D1 (cycD1); experiment: Western blot, MCF7 cells, cyclin D1; conditions: presence or absence of E2, 24 h
Method: as §1, §2

T1 sequence (P03372 whole entry): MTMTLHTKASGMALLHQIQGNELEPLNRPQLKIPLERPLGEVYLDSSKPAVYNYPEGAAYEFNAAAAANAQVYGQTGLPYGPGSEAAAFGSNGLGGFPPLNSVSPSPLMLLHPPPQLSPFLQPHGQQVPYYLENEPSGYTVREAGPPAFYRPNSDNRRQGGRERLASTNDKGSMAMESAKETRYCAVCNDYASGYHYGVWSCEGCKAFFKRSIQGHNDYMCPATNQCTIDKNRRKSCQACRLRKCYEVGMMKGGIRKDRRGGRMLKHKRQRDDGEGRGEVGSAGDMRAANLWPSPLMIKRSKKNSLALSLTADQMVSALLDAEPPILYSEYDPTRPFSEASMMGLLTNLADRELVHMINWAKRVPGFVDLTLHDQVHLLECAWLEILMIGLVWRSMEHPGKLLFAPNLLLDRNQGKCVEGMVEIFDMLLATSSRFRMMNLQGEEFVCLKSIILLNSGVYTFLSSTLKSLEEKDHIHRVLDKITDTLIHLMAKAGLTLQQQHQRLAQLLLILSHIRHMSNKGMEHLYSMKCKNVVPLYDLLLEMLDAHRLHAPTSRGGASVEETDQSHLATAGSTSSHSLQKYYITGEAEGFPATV
T2 sequence (P10275 whole entry): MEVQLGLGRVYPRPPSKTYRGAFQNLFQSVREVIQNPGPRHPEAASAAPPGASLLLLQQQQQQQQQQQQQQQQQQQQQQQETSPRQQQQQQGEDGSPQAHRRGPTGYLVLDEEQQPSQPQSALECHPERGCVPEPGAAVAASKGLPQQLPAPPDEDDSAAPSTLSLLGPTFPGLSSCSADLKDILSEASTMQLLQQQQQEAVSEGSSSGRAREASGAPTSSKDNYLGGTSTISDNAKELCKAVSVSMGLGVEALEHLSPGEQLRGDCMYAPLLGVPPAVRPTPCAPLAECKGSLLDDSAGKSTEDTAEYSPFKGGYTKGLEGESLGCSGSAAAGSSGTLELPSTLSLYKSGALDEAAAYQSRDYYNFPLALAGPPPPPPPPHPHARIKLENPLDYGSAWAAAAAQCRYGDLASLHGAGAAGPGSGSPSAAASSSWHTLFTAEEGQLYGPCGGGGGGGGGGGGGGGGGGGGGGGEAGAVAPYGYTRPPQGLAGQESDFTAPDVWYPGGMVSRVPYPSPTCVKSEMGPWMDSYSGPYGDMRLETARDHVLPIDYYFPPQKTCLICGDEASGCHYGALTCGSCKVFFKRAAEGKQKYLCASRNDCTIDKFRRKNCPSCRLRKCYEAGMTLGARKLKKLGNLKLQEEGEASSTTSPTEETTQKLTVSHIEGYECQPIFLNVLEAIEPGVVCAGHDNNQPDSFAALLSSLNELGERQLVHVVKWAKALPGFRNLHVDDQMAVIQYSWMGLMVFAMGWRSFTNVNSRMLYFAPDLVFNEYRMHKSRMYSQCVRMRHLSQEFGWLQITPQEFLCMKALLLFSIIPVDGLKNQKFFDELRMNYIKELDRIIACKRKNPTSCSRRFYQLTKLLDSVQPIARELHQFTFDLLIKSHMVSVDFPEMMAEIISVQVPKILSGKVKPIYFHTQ

IC50 ([4]; LNCaP w/DHT 2 nM) | IC50 ([4]; no DHT) | IC50 ([5]; PC3, no DEX) | IC50 ([5]; PC3 w/DEX 50 nM) | IC50 ([6]; LNCaP-GR w/DEX 50 nM) | IC50 ([6]; LNCaP-GR w/DHT 2 nM) | IC50 ([6]; LNCaP-GR, no DHT/DEX) | ERa protein expression [8] | IC50 ([11]; 22Rv1, no DHT/DEX) | IC50 ([11]; 22Rv1 w/DEX 50 nM) | IC50 ([11]; 22Rv1 w/DHT 25 nM) | SMILES | ERb protein expression [1] | beta-catenin protein expression [2] | inhibitory effect on AR mediated transcriptional response [3] | cyclin D1 protein expression [7] | beta-catenin protein expression [9] | GR protein expression [10] | AR protein expression [12] | AR-V protein expression [13] | PR (a and b) protein expression [14] | also measured
> 500 µg/mL | > 500 µg/mL | > 500 µg/mL | > 500 µg/mL | > 500 µg/mL | > 500 µg/mL | > 500 µg/mL | did not have any impact | > 500 µg/mL | > 500 µg/mL | > 500 µg/mL | Cc1c(OC2OC(CO)C(O)C(O)C2OC2OC(C)C(O)C(O)C2O)cc2c(c1O)C(=O)c1ccc(O)cc1C2=O [RG, 1,3,6-Trihydroxy-2-methyl-9,10-anthracenedione 3-O-[α-L-Rhamnopyranosyl-(1→2)-β-D-glucopyranoside]] | did not have any impact | did not have impact | very weak activity | did not have impact | did not have any impact | did not have impact | did not have impact | did not have impact | did not have any impact | GR protein expression [15]: did not have any impact; AR protein expression [16]: did not have any impact; cyclin D1 protein expression [17]: did not have any impact
50 µg/mL | > 500 µg/mL | 146 µg/mL | 320 µg/mL | 60 µg/mL | 40 µg/mL | 220 µg/mL | downregulate | 306 µg/mL | 220 µg/mL | 253 µg/mL | CC(=O)OCC1OC(Oc2cc3c(c(O)c2C)C(=O)c2ccc(O)cc2C3=O)C(OC2OC(C)C(O)C(O)C2O)C(O)C1O [RGA, 1,3,6-Trihydroxy-2-methyl-9,10-anthracenedione 3-O-[α-L-Rhamnopyranosyl-(1→2)-6-O-acetyl-β-D-glucopyranoside]] | slightly downregulate | moderate inhibitory effect | very similar anti-AR activity as the Y1830 water extract | strong inhibitory effect | moderate inhibitory effect | but not GR | downregulate | downregulate | downregulate | susceptibility of LNCaP cell growth to treatment (in words) ([4]; in the absence of DHT): not be susceptible; sensitivity of LNCaP cell growth to treatment (in words) ([4]; in the presence of DHT): more sensitive; inhibition of PC3 cell growth (in words) ([5]; with or without DEX): inhibited PC3 cell growth, but less effectively in the presence of DEX; inhibition of LNCaP-GR cell growth (in words) ([6]; in the presence of either DHT or DEX): effectively inhibited; GR protein expression [15]: did not inhibited; AR protein expression [16]: downregulate; cyclin D1 protein expression [17]: strong inhibitory effects
